According to patent US20110105565A1, “WATER SOLUBLE SMALL MOLECULE INHIBITORS OF THE CYSTIC FIBROSIS TRANSMEMBRANE CONDUCTANCE REGULATOR” (THE REGENTS OF THE UNIVERSITY OF CALIFORNIA, priority 2008, published 2011):
Converted amounts (≈) assume the structure as drawn. Where two headings read alike, the source gives them in different places.

Tests used:
human wildtype CFTR = human wildtype CFTR (Homo sapiens, UniProt P13569); test: Fluorescence cell-based assay of CFTR inhibition (YFP iodide influx, FRT cells); parameters: expressed in transfected cells; host or cells: Fisher rat thyroid (FRT) cells; conditions: given as ranges, read-out: IC50
human wildtype CFTR, sequence (P13569 whole entry): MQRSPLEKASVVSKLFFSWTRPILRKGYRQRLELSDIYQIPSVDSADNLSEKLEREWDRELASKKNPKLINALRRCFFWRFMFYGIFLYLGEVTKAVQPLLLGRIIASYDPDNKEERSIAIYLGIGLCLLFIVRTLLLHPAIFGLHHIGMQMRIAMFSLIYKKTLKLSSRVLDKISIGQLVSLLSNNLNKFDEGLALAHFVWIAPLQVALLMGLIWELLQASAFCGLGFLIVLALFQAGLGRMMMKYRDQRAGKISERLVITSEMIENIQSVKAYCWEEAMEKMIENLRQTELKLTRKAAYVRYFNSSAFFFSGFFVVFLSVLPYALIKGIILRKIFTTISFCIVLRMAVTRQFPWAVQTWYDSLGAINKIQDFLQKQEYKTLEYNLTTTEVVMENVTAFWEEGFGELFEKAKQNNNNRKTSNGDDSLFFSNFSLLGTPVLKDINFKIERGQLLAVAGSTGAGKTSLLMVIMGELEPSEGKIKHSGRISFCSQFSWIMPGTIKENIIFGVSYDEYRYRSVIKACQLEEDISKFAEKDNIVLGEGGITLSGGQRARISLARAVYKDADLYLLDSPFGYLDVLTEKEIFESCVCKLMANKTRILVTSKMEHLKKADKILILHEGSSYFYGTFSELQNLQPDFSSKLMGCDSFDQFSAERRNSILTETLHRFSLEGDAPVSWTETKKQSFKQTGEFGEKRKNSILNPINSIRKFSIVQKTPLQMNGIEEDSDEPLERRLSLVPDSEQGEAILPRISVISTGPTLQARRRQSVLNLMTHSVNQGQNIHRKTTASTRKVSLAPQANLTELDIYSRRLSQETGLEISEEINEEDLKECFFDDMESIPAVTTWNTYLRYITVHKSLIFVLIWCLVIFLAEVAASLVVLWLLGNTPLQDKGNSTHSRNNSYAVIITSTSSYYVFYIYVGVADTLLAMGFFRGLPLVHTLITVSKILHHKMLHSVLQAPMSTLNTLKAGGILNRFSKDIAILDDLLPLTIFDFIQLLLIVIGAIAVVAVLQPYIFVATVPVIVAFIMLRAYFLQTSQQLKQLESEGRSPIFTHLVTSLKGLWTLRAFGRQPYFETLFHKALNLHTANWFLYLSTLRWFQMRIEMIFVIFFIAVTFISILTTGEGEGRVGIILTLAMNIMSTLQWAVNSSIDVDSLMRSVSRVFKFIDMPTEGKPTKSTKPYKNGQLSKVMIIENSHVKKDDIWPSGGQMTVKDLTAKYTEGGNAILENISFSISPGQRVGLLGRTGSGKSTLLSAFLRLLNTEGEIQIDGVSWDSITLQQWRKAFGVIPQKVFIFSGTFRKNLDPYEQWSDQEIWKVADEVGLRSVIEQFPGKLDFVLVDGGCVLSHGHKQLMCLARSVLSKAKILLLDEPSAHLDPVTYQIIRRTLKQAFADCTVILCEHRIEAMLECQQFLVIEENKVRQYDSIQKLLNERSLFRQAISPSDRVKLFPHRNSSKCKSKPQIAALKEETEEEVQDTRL
Experimental: CFTR inhibition by thiazolidinone derivative compounds was determined by a fluorescence cell-based assay utilizing doubly transfected cells expressing human wild-type CFTR and a yellow fluorescent protein (YFP) iodide sensor, as described (see, e.g., Galietta, et al., J. Physiol. 281:C1734-C1742 (2001)). Fisher rat thyroid (FRT) cells stably expressing wild-type human CFTR and YFP-H148Q were cultured on 96-well black-wall plates as described (see, e.g., Ma, et al., J. Clin. Invest. 110:1651-1658 (2002)). Cells in 96-well plates were washed three times, and then CFTR was activated by incubation for 15 minutes with an activating cocktail containing 10 μM forskolin, 20 μM apigenin, and 100 μM IBMX. Test compounds were added 5 minutes before assay of iodide influx in which cells were exposed to a 100 mM inwardly directed iodide gradient. YFP fluorescence was recorded for 2 seconds before and 12 seconds after creation of the iodide gradient. Initial rates of iodide influx were computed from the time course of decreasing fluorescence after the iodide gradient.
CFTR-facilitated iodide influx following extracellular iodide addition results in quenching of cytoplasmic YFP fluorescence.

[1] = Solubility measurements in saline (PBS, LC/MS); type: physicochemical
Experimental: Solubility measurements. A saturated compound solution was prepared by addition of DMSO stock to phosphate buffered saline (final DMSO 2%) followed by sonication for 5 min at 25° C. and shaking at room temperature for 1 h. After centrifugation at 15,000 rpm for 1 h, the supernatant was analyzed by LC/MS with concentration determined from area under the curve, standardized against calibration data. A standard curve for each compound was obtained by plotting area under the curve from chromatograms against inhibitor concentration. The concentration range of the standard solutions was 1-15 μM (for 5) and 1-100 μM (other compounds). In all cases, standard curves prepared were linear with r>0.998.
A saturated drug solution of a compound was prepared by addition of the compound in DMSO to phosphate buffered saline (PBS), followed by sonication for 5 min at 25° C. Final concentration of DMSO was <2%. Each saturated solution was centrifuged and filtered. The saturated supernatant solution was diluted and injected into LC/MS. The concentration was determined from area under the curve using a calibration curve.

FRT cells = test: Cytotoxicity measurements, crystal violet staining of FRT cells; type: cell-based, rat; conditions: 48 h
Experimental: Cytotoxicity measurements. FRT cells in confluent monolayers were incubated with compounds for 2 days. Cells were washed 3 times, fixed (cytofix, 30 min) and stained with crystal violet (100 μl, 0.5%, 10 min) using standard procedures. Excess crystal violet was removed by washing, and dye was extracted with Sorenson's buffer (0.1 M sodium citrate, 50% ethanol, pH 4.2). Crystal violet was quantified by measurement of absorbance at 650 nm. The percentage crystal violet staining was determined from test wells measured 8 times, compared to blanks (wells not containing cells) and vehicle-treated cells.
Cytotoxicity analysis was performed for Tetrazolo-172, Oxo-172, α-Me-172 and Pyridine-NO-172 (Compound 17) and compared with CFTRinh-172 (Table 3). […] Crystal violet staining was reduced for Tetrazolo-172 and α-Me-172 at 50 μM.

For `O=C1/C(=C/c2ccc(-c3nn[nH]n3)cc2)SC(=S)N1c1cccc(C(F)(F)F)c1` [Compound 6, (Z)-5-(4-(1H-tetrazol-5-yl)benzylidene)-2-thioxo-3-(3-(trifluoromethyl)phenyl)thiazolidin-4-one], the IC50 (human wildtype CFTR; Table 1, upper part, CFTR inhibitory activity) was 0.1 to 1 µM, the IC50 (human wildtype CFTR; Table 2 summary table) was 0.1 to 1 µM and the “increase of solubility in saline/water relative to CFTRinh-172” value [1] was 11 fold. The “Solubility in saline” value ([1]; Table 3, PBS, DMSO <2%) was 189 µM (≈ 81.9 µg/mL), the “% Cell viability 20 μM” value (FRT cells; 20 μM, crystal violet staining) was 87% and the “Crystal violet staining at 50 μM (in words)” value (FRT cells; 50 μM) was “reduced”. The “% Cell viability 50 μM” value (FRT cells; 50 μM, crystal violet staining) was 73%.
